Results published in US7884115B2, “Methods and compositions for the treatment of pain and other neurological conditions” (Allergan, Inc., priority 2004, dated 2011).

Experiments:
Type in all cases: in vivo
[1] = tested on: allodynia induced by phenylephrine (PE); assay: Mouse phenylephrine (PE) model of allodynia
Description: (§1) In variants of this model, allodynia can be induced using 100 ng N-methyl-D-aspartate (NMDA) in DMSO intrathecally, or IP phenylephrine (PE) 100 ng/kg formulated in dH2O. In either model, the compounds are formulated in d-H2O and given in a volume of 1 ml/kg body weight for intraperitoneal (IP) dosing. Six mice per group are rendered allodynic by injection of one of the following agents: 300 ng/kg sulprostone in DMSO IP, 100 ng/kg phenylephrine (PE) in dH2O IP, or 100 ng NMDA in DMSO intrathecally (IT). Fifteen minutes before administration of the allodynia-inducing agents, the experimental mice are given 1 mg/kg NB-DNJ. Thirty (30) minutes following administration of NB-DNJ, the allodynic response is monitored as described by brushing the flank of each mouse with a paint brush. Five to six mice per group are rendered allodynic by injection of one of the following: 300 ng/kg sulprostone IP, 100 ng/kg phenylephrine (PE) IP, or 100 ng NMDA intrathecally (IT). Fifteen minutes prior to the induction of allodynia, the mice are given D-glucaro-delta-lactam IP at […], or 1 mg/kg. PE or NMDA-treated mice are given 1 mg/kg D-glucaro-delta-lactam IP.

[2] = tested on: allodynia induced by N-methyl-D-aspartate (NMDA); assay: Mouse NMDA model of allodynia
Description: as §1, with “brush. Six mice per group are given one of the following: given 100 μg/kg NB-DNJ, 300 μg/kg NB-DNJ, 1 mg/kg NB-DNJ, or 3 mg/kg 1-deoxynojirimycin. After 15 minutes the mice are rendered allodynic by injection of 200 ng NMDA in DMSO IT. Starting thirty (30) minutes following administration of NB-DNJ, the allodynic response of each mouse is monitored by brushing the flank of the mouse with a paint brush.” for “brush.”

[3] = tested on: tactile allodynia in ligated Chung rats; assay: Chung model (spinal nerve ligation, tactile allodynia, von Frey hairs); conditions: Chung rat, 30 min after administration
Description: One standard model for chronic pain involves the surgical ligation of the L5 (and optionally the L6) spinal nerves on one side in experimental animals. Rats recovering from the surgery gain weight and display a level of general activity similar to that of normal rats. However, these rats develop abnormalities of the foot, wherein the hindpaw is moderately everted and the toes are held together. More importantly, the hindpaw on the side affected by the surgery appears to become sensitive to pain from low-threshold mechanical stimuli, such as that producing a faint sensation of touch in a human, within about 1 week following surgery. […]
Tactile allodynia is measured prior to and 30 minutes after drug administration using von Frey hairs that are a series of fine hairs with incremental differences in stiffness. […] The applied force has been calculated to range from 0.41 to 15.1 grams. […] The 50% paw withdrawal threshold is determined using the method of Dixon, W. J., Ann. […] The post-drug threshold is compared to the pre-drug threshold and the percent reversal of tactile sensitivity is calculated based on a normal threshold of 15.1 grams.
Control rats are given the vehicle alone. Thirty (30) minutes following administration rats are brushed with Von Freys hairs and tactile allodynia is measured using the method of Dixon, as described above. […]

Compound	analgesic effect ([1]; 1 mg/kg IP, 15 min before PE 100 ng/kg IP, FIG. 4)	analgesic effect ([2]; 1 mg/kg IP, 15 min before NMDA 100 ng IT, FIG. 4)	reversal of induced allodynia (reduction in allodynic response to Von Freys hair stimulus) ([3]; 1 mg/kg intraperitoneally, FIG. 6)	reversal of the allodynic response ([1]; 1 mg/kg given 15 min before PE 100 ng/kg IP, FIG. 1)	pain reduction at different doses ([2]; 100 μg/kg, 300 μg/kg, 1 mg/kg, 15 min before 200 ng NMDA IT, FIG. 2)	reversal of the allodynic response ([2]; 1 mg/kg given 15 min before NMDA 100 ng IT, FIG. 1)	analgesic activity (allodynic reversal) ([3]; 1 mg/kg and 3 mg/kg intraperitoneally, FIG. 5)
O=C(O)[C@H]1NC(=O)[C@H](O)[C@@H](O)[C@@H]1O [D-glucaro-delta-lactam]	able to achieve an analgesic effect	able to achieve an analgesic effect	approximately 70%				
CCCCN1C[C@H](O)[C@@H](O)[C@H](O)[C@H]1CO [NB-DNJ, N-butyl-1-deoxy-nojirimycin]				no reversal	dose response	significant reversal	analgesic
